# Legend:
# [1] = target: T1, FGFR2 (Homo sapiens, UniProt P21802); assay: FGFR2 Kinase Protocol - Condition 2 (Reaction Biology HotSpot radiometric kinase assay, no preincubation); type: biochemical; settings: poly[Glu:Tyr] (4:1) 0.2 mg/ml, ATP 100 microM, 2 hr room temperature
# Procedure, shortened: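 Ten-point, 3-fold compound dilutions were tested against wildtype or V564F FGFR2 with 100 µM ATP (33P-labelled), no preincubation, and 0.2 mg/ml poly[Glu:Tyr] (4:1) substrate. After 2 hr at room temperature, incorporation was read on P81 filter paper; IC50 fitted from activity remaining relative to vehicle.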
# [2] = target: T1, FGFR2; assay: FGFR2 Kinase Protocol - Condition 1 (Reaction Biology HotSpot radiometric kinase assay); type: biochemical; settings: 20-min incubation of compound with kinase before ATP; poly[Glu:Tyr] (4:1) 0.2 mg/ml; ATP 100 micromolar; 2 hr room temperature
# Description: Example 1: FGFR2 Kinase Protocol—Condition 1
# The Reaction Biology HotSpot assay platform (http://www.reactionbiology.com) was used to measure kinase/inhibitor interactions as described previously (Anastassiadis et al., 2011). In brief, for each reaction, kinase and substrate were mixed in a buffer containing 20 mM HEPES (pH 7.5), 10 mM MgCl2, 1 mM EGTA, 0.02% Brij35, 0.02 mg/mL BSA, 0.1 mM Na3VO4, 2 mM DTT, and 1% DMSO. All compounds were in powder form and freshly solubilized in DMSO for assays. Compounds were then added to each reaction mixture via acoustic dispense using an ECHO 550 nanoliter dispenser. For Human FGFR2 wildtype testing, a peptide substrate, poly[Glu:Tyr] (4:1) was used to promote the reaction at a concentration of 0.2 mg/ml. For Human FGFR2 (V564F) testing, a peptide substrate, poly[Glu:Tyr] (4:1) was used to promote the reaction at a concentration of 0.2 mg/ml. ATP concentration for all assays was maintained at 100 micromolar. Compounds were tested in 10-dose IC50 mode with a 3-fold serial dilution. After a 20-min incubation, ATP (Sigma-Aldrich, St. Louis, MO 63178) and [g33P] ATP (specific activity 10 microCi/microliter) purchased at PerkinElmer (Boston, MA, 02118 Cat #BLU 003H250UC) were added at a final total concentration of […]. Reactions were carried out at room temperature for 2 hr and spotted onto P81 ion exchange cellulose chromatography paper (Reaction Biology). Filter paper was washed in 0.75% phosphoric acid to remove unincorporated ATP. The percent remaining kinase activity relative to a vehicle-containing (DMSO) kinase reaction was calculated for each kinase/inhibitor pair. IC50 values were calculated using Dotmatics Knowledge Solutions Studies curve fitting (Dotmatics, Bishops Stortford, UK, CM23).
# T1 sequence (P21802 22-821): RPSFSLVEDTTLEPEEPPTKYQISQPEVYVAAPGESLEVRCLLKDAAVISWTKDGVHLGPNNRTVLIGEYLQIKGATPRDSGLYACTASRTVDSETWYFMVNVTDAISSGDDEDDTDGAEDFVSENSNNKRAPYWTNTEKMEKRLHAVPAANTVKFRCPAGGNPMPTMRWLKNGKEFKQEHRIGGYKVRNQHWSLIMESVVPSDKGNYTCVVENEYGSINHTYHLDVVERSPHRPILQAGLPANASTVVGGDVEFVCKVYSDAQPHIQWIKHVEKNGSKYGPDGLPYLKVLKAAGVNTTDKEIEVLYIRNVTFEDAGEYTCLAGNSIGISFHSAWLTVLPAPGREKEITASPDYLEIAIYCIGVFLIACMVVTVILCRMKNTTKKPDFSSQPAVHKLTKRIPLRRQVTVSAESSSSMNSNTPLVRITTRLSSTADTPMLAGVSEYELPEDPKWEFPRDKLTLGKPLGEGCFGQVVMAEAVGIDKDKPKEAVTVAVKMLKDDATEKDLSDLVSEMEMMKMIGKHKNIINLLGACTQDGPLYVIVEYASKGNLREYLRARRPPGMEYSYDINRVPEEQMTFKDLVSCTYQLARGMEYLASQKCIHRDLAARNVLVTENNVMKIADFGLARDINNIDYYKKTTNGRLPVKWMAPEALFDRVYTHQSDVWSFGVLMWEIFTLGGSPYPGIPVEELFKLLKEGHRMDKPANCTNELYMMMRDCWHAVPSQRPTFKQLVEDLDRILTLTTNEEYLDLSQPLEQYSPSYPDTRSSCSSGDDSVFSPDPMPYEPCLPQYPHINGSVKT
SMILES,IC50 [1],IC50 [2]
C=CC(=O)N1C[C@@H](n2cc(C#Cc3ccc4nc(C)n(C)c4c3)c3c(N)nccc32)C[C@@H]1COC [Example 28],1000 to 10000 nM,1000 to 10000 nM
"C=CC(=O)N1C[C@@H](n2nc(C#Cc3c(F)cc4c(nc(C)n4C)c3F)c3c(N)nccc32)C[C@@H]1COC [Example 16, 1-((2R,4S)-4-(4-amino-3-((4,6-difluoro-1,2-dimethyl-1H-benzo[d]imidazol-5-yl)ethynyl)-1H-pyrazolo[4,3-c]pyridin-1-yl)-2-(methoxymethyl)pyrrolidin-1-yl)prop-2-en-1-one]",≤ 100 nM,≤ 100 nM
"C=CC(=O)N1C[C@@H](n2nc(C#Cc3c(F)cc4c(nc(C)n4C)c3F)c3c(N)ncnc32)C[C@@H]1COC [Example 12, 1-((2R,4S)-4-(4-amino-3-((4,6-difluoro-1,2-dimethyl-1H-benzo[d]imidazol-5-yl)ethynyl)-1H-pyrazolo[3,4-d]pyrimidin-1-yl)-2-(methoxymethyl)pyrrolidin-1-yl)prop-2-en-1-one]",≤ 100 nM,≤ 100 nM
"C=CC(=O)N1C[C@@H](n2nc(C#Cc3ccc4c(c3)nc(C)n4C)c3c(N)ncnc32)C[C@@H]1COC [Example 3, 1-((2R,4S)-4-(4-amino-3-((1,2-dimethyl-1H-benzo[d]imidazol-5-yl)ethynyl)-1H-pyrazolo[3,4-d]pyrimidin-1-yl)-2-(methoxymethyl)pyrrolidin-1-yl)prop-2-en-1-one]",≤ 100 nM,≤ 100 nM

# Second part, the compound after the results:
IC50 [1],IC50 [2],SMILES
100 to 1000 nM,≤ 100 nM,"C=CC(=O)N1C[C@@H](n2cc(C#Cc3ccc4c(c3)ncn4C3CC3)c3c(N)nccc32)C[C@@H]1COC [Example 30, 1-((2R,4S)-4-(4-amino-3-((1-cyclopropyl-1H-benzo[d]imidazol-5-yl)ethynyl)-1H-pyrrolo[3,2-c]pyridin-1-yl)-2-(methoxymethyl)pyrrolidin-1-yl)prop-2-en-1-one]"
100 to 1000 nM,≤ 100 nM,"C=CC(=O)N1C[C@@H](n2cc(C#Cc3ccc4c(c3)nc(C)n4C)c3c(N)nccc32)C[C@@H]1COC [Example 29, 1-((2R,4S)-4-(4-amino-3-((1,2-dimethyl-1H-benzo[d]imidazol-5-yl)ethynyl)-1H-pyrrolo[3,2-c]pyridin-1-yl)-2-(methoxymethyl)pyrrolidin-1-yl)prop-2-en-1-one]"
100 to 1000 nM,≤ 100 nM,"C=CC(=O)N1C[C@@H](n2cc(C#Cc3ccc4c(c3)ncn4CC)c3c(N)nccc32)C[C@@H]1COC [Example 31, 1-((2R,4S)-4-(4-amino-3-((1-ethyl-1H-benzo[d]imidazol-5-yl)ethynyl)-1H-pyrrolo[3,2-c]pyridin-1-yl)-2-(methoxymethyl)pyrrolidin-1-yl)prop-2-en-1-one]"
